Consider 21 molecules from patent publication US20200055839A1 (priority 2017, published 2020).

As a reminder, the EC50 is the concentration giving half of the maximal effect. A high value points to lower potency in that assay.

In the experiment the test system is NL-RLuc virus. Description: Inhibition of HIV replication (NL-RLuc virus, luciferase readout in MT-2 cells). The conditions noted are these: Human immunodeficiency virus 1, MT2, 120 h, MT-2 cells infected with NL-RLuc virus, 5 days of incubation, 10% FBS, at least 2 experiments. It counts as cell-based. The source says:
Inhibition of HIV Replication:
A recombinant NL-RLuc proviral clone was constructed in which a section of the nef gene form NL4-3 was replaced with the Renilla Luciferase gene. This virus is fully infectious and can undergo multiple cycles of replication in cell culture. In addition, the luciferous reporter provides a simple and easy method for quantitating the extent of virus growth and consequently, the antiviral activity of test compounds. The plasmid pNLRLuc contains the proviral NL-Rluc DNA cloned into pUC18 at the PvuII site. The NL-RLuc virus was prepared by transfection of 293T cells with the plasmid pNLRLuc. Transfections were performed using the LipofectAMINE PLUS kit form Invitrogen (Carlsbad, Calif.) according to the manufacturer and the virus generated was titered in MT-2 cells. For susceptibility analyses, the titrated virus was used to infect MT-2 cells in the presence of compound, and after 5 days of incubation, cells were processed and quantitated for virus growth by the amount of expressed luciferase. Assay media was RPMI 1640 supplemented with 10% heat inactivated fetal bovine serum (FBS), 100 units/ml penicillin G/100 units/ml streptomycin, 10 mM HEPES buffer pH 7.55 and 2 mM L-glutamine. The results form at least 2 experiments were used to calculate the EC50 values. Luciferase was quantitated using the Dual Luciferase kit form Promega (Madison, Wis.). Susceptibility of viruses to compounds was determined by incubation in the presence of serial dilutions of the compound. The 50% effective concentration (EC50) was calculated by using the exponential form of the median effect equation where (Fa)=1/[1+(ED50/drug conc.)^m](Johnson V A, Byington R T. Infectivity Assay. In Techniques in HIV Research. ed. Aldovini A, Walker B D. 71-76. New York: Stockton Press. 1990).
The molecule `Cc1ncc(-c2ccc(OCCc3ccc(F)cc3)nn2)c(N2CCC(C)(C)CC2)c1[C@H](OC(C)(C)C)C(=O)O` [Example 17, (S)-2-(tert-Butoxy)-2-(4-(4,4-dimethylpiperidin-1-yl)-5-(6-(4-fluorophenethoxy)pyridazin-3-yl)-2-methylpyridin-3-yl)acetic acid] came in with an EC50 of 85 nM.

Turning to `CCC(C)(C)O[C@H](C(=O)O)c1c(C)ncc(-c2ccc(OCCc3ccc(F)cc3)cc2)c1N1CCC(C)(C)CC1` [Example 18, (2S)-2-[4-(4,4-Dimethylpiperidin-1-yl)-5-{4-[2-(4-fluorophenyl)ethoxy]phenyl}-2-methylpyridin-3-yl]-2-[(2-methylbutan-2-yl)oxy]acetic acid], the response was half-maximal at 4 nM (EC50).

`Cc1ncc(-c2ccc(OCc3ncnc4c3oc3ccccc34)cc2)c(N2CCC(C)(C)CC2)c1[C@H](OC(C)(C)C)C(=O)O` [Example 19, (2S)-2-(tert-Butoxy)-2-[4-(4,4-dimethylpiperidin-1-yl)-2-methyl-5-[4-({8-oxa-3,5-diazatricyclo[7.4.0.0^2,7]trideca-1(9), 2(7), 3,5,10,12-hexaen-6-yl}methoxy)phenyl]pyridin-3-yl]acetic acid] registered an EC50 of 4 nM.

For `Cc1ncc(-c2ccc(CN(C)c3ncnc4c3oc3ccccc34)cc2)c(N2CCC(C)(C)CC2)c1[C@H](OC(C)(C)C)C(=O)O` [Example 20, (2S)-2-(tert-Butoxy)-2-[4-(4,4-dimethylpiperidin-1-yl)-2-methyl-5-(4-{[methyl({8-oxa-3,5-diazatricyclo[7.4.0.0^2,7]trideca-1(9),2(7),3,5,10,12-hexaen-6-yl})amino]methyl}phenyl)pyridin-3-yl]acetic acid], a half-maximal response (EC50) required 2 nM. This EC50 lies about 2-fold lower than the previous one.

`Cc1ncc(-c2ccc(CNc3ncnc4c3oc3ccccc34)cc2)c(N2CCC(C)(C)CC2)c1[C@H](OC(C)(C)C)C(=O)O` [Example 21, (2S)-2-(tert-Butoxy)-2-[4-(4,4-dimethylpiperidin-1-yl)-2-methyl-5-{4-[({8-oxa-3,5-diazatricyclo[7.4.0.0^2,7]trideca-1(9), 2(7), 3,5,10, 12-hexaen-6-yl}amino)methyl]phenyl}pyridin-3-yl]acetic acid] displayed an EC50 of 2 nM.

As to `Cc1nc(C#N)c(-c2ccc(CN(C)c3ncnc4c3oc3ccccc34)cc2)c(N2CCC(C)(C)CC2)c1[C@H](OC(C)(C)C)C(=O)O` [Example 22, (2S)-2-(tert-Butoxy)-2-[6-cyano-4-(4,4-dimethylpiperidin-1-yl)-2-methyl-5-(4-{[methyl({8-oxa-3,5-diazatricyclo[7.4.0.0^2,7]trideca-1 (9), 2(7), 3,5,10, 12-hexaen-6-yl})amino]methyl}phenyl)pyridin-3-yl]acetic acid], it took 3 nM to reach a half-maximal effect (EC50).

In the case of `Cc1nc(CNC(=O)OC(C)(C)C)c(-c2ccc(OCCc3ccc(F)cc3)cc2)c(N2CCC(C)(C)CC2)c1[C@H](OC(C)(C)C)C(=O)O` [Example 23, (S)-2-(tert-Butoxy)-2-(6-(((tert-butoxycarbonyl)amino)methyl)-4-(4,4-dimethylpiperidin-1-yl)-5-(4-(4-fluorophenethoxy)phenyl)-2-methylpyridin-3-yl)acetic acid], the EC50 worked out at 2 nM.

`Cc1nc(NC2CCOCC2)c(-c2ccc(OCCc3ccc(F)cc3)cc2)c(N2CCC(C)(C)CC2)c1[C@H](OC(C)(C)C)C(=O)O` [Example 24, (S)-2-(tert-Butoxy)-2-(4-(4,4-dimethylpiperidin-1-yl)-5-(4-(4-fluorophenethoxy)phenyl)-2-methyl-6-((tetrahydro-2H-pyran-4-yl)amino)pyridin-3-yl)acetic acid] had an EC50 of 2 nM.

Consider `Cc1nc(NC2CCN(C)CC2)c(-c2ccc(OCCc3ccc(F)cc3)cc2)c(N2CCC(C)(C)CC2)c1[C@H](OC(C)(C)C)C(=O)O` [Example 25, (S)-2-(tert-Butoxy)-2-(4-(4,4-dimethylpiperidin-1-yl)-5-(4-(4-fluorophenethoxy)phenyl)-2-methyl-6-((1-methylpiperidin-4-yl)amino)pyridin-3-yl)acetic acid], for which the 50% effective concentration (EC50) was determined as 0.8 nM. This EC50 is about 2.5-fold lower than that of the molecule before.

Regarding `Cc1nc(NCCN2CCOCC2)c(-c2ccc(OCCc3ccc(F)cc3)cc2)c(N2CCC(C)(C)CC2)c1[C@H](OC(C)(C)C)C(=O)O` [Example 26, (S)-2-(tert-Butoxy)-2-(4-(4,4-dimethylpiperidin-1-yl)-5-(4-(4-fluorophenethoxy)phenyl)-2-methyl-6-((2-morpholinoethyl)amino)pyridin-3-yl)acetic acid], it took 0.5 nM to reach a half-maximal effect (EC50).

The molecule `COCCNc1nc(C)c([C@H](OC(C)(C)C)C(=O)O)c(N2CCC(C)(C)CC2)c1-c1ccc(OCCc2ccc(F)cc2)cc1` [Example 27, (S)-2-(tert-Butoxy)-2-(4-(4,4-dimethylpiperidin-1-yl)-5-(4-(4-fluorophenethoxy)phenyl)-6-((2-methoxyethyl)amino)-2-methylpyridin-3-yl)acetic acid] gave an EC50 of 0.7 nM.

In the case of `Cc1nc(NCCN(C)C)c(-c2ccc(OCCc3ccc(F)cc3)cc2)c(N2CCC(C)(C)CC2)c1[C@H](OC(C)(C)C)C(=O)O` [Example 28, (S)-2-(tert-Butoxy)-2-(6-((2-(dimethylamino)ethyl)amino)-4-(4,4-dimethylpiperidin-1-yl)-5-(4-(4-fluorophenethoxy)phenyl)-2-methylpyridin-3-yl)acetic acid], a half-maximal response (EC50) required 0.7 nM.

`Cc1nc(NCCN2CCCCC2)c(-c2ccc(OCCc3ccc(F)cc3)cc2)c(N2CCC(C)(C)CC2)c1[C@H](OC(C)(C)C)C(=O)O` [Example 29, (S)-2-(tert-Butoxy)-2-(4-(4,4-dimethylpiperidin-1-yl)-5-(4-(4-fluorophenethoxy)phenyl)-2-methyl-6-((2-(piperidin-1-yl)ethyl)amino)pyridin-3-yl)acetic acid] displayed an EC50 of 0.2 nM.

`Cc1nc(NCc2ccn[nH]2)c(-c2ccc(OCCc3ccc(F)cc3)cc2)c(N2CCC(C)(C)CC2)c1[C@H](OC(C)(C)C)C(=O)O` [Example 30, (S)-2-(6-(((1H-Pyrazol-5-yl)methyl)amino)-4-(4,4-dimethylpiperidin-1-yl)-5-(4-(4-fluorophenethoxy)phenyl)-2-methylpyridin-3-yl)-2-(tert-butoxy)acetic acid] had an EC50 of 2 nM.

Turning to `Cc1nc(NCCC2CCN(C)CC2)c(-c2ccc(OCCc3ccc(F)cc3)cc2)c(N2CCC(C)(C)CC2)c1[C@H](OC(C)(C)C)C(=O)O` [Example 31, (S)-2-(tert-Butoxy)-2-(4-(4,4-dimethylpiperidin-1-yl)-5-(4-(4-fluorophenethoxy)phenyl)-2-methyl-6-((2-(1-methylpiperidin-4-yl)ethyl)amino)pyridin-3-yl)acetic acid], the EC50 is 0.8 nM.

Molecule `Cc1nc(NCCc2c[nH]cn2)c(-c2ccc(OCCc3ccc(F)cc3)cc2)c(N2CCC(C)(C)CC2)c1[C@H](OC(C)(C)C)C(=O)O` [Example 32, (S)-2-(6-((2-(H-Imidazol-4-yl)ethyl)amino)-4-(4,4-dimethylpiperidin-1-yl)-5-(4-(4-fluorophenethoxy)phenyl)-2-methylpyridin-3-yl)-2-(tert-butoxy)acetic acid] showed an EC50 of 5 nM.

`Cc1nc(NCCn2cccn2)c(-c2ccc(OCCc3ccc(F)cc3)cc2)c(N2CCC(C)(C)CC2)c1[C@H](OC(C)(C)C)C(=O)O` [Example 33, (S)-2-(6-((2-(1H-Pyrazol-1-yl)ethyl)amino)-4-(4,4-dimethylpiperidin-1-yl)-5-(4-(4-fluorophenethoxy)phenyl)-2-methylpyridin-3-yl)-2-(tert-butoxy)acetic acid] came in with an EC50 of 2 nM. This EC50 is about 2.5-fold lower than that of the molecule before.

`Cc1nc(NCCCN2CCOCC2)c(-c2ccc(OCCc3ccc(F)cc3)cc2)c(N2CCC(C)(C)CC2)c1[C@H](OC(C)(C)C)C(=O)O` [Example 34, (S)-2-(tert-Butoxy)-2-(4-(4,4-dimethylpiperidin-1-yl)-5-(4-(4-fluorophenethoxy)phenyl)-2-methyl-6-((3-morpholinopropyl)amino)pyridin-3-yl)acetic acid] displayed an EC50 of 0.7 nM.

For the molecule `Cc1nc(NCCCN2CCCCC2)c(-c2ccc(OCCc3ccc(F)cc3)cc2)c(N2CCC(C)(C)CC2)c1[C@H](OC(C)(C)C)C(=O)O` [Example 35, (S)-2-(tert-Butoxy)-2-(4-(4,4-dimethylpiperidin-1-yl)-5-(4-(4-fluorophenethoxy)phenyl)-2-methyl-6-((3-(piperidin-1-yl)propyl)amino)pyridin-3-yl)acetic acid], the EC50 stood at 1 nM.

`Cc1nc(-c2cnn(C)c2)c(-c2ccc(OCCc3ccc(F)cc3)cc2)c(N2CCC(C)(C)CC2)c1[C@H](OC(C)(C)C)C(=O)O` [Example 36, (S)-2-(tert-Butoxy)-2-(4-(4,4-dimethylpiperidin-1-yl)-5-(4-(4-fluorophenethoxy)phenyl)-2-methyl-6-(1-methyl-H-pyrazol-4-yl)pyridin-3-yl)acetic acid] came in with an EC50 of 4 nM.

Turning to `Cc1nn(C)cc1-c1nc(C)c([C@H](OC(C)(C)C)C(=O)O)c(N2CCC(C)(C)CC2)c1-c1ccc(OCCc2ccc(F)cc2)cc1` [Example 37, (S)-2-(tert-Butoxy)-2-(6-(1,3-dimethyl-1H-pyrazol-4-yl)-4-(4,4-dimethylpiperidin-1-yl)-5-(4-(4-fluorophenethoxy)phenyl)-2-methylpyridin-3-yl)acetic acid], a half-maximal response (EC50) required 2 nM.
